Data from PubChem BioAssay (NCI).
Where “and” joins values, the source holds several entries; their conditions need not be identical. Equal entries are not always repeated.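 Step 1: Grow cells in 96-well plates. Step 2: Expose to compound for 48 hours at 5 concentrations. Step 3: Interpolate endpoints linearly; if unreached, use highest concentration. Abbreviation: GI50, concentration required for 50% inhibition of growth. TGI is the concentration that stops growth completely.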

What was measured:
Test in all cases: NCI anticancer screen, dose series, 48 h
NCI-H23 lung = tested on: NCI-H23 lung
SN12C renal = tested on: SN12C renal
MDA-MB-435 = tested on: MDA-MB-435
SK-MEL-28 melanoma = tested on: SK-MEL-28 melanoma
HOP-62 NSCLC = tested on: HOP-62 NSCLC
SK-MEL-2 melanoma = tested on: SK-MEL-2 melanoma
DU-145 prostate = tested on: DU-145 prostate
LOX IMVI melanoma = tested on: LOX IMVI melanoma

| SMILES | GI50 (NCI-H23 lung) | TGI (NCI-H23 lung) [µM] | GI50 (SN12C renal) | TGI (SN12C renal) [µM] | GI50 (MDA-MB-435) | TGI (MDA-MB-435) [µM] | GI50 (SK-MEL-28 melanoma) | TGI (SK-MEL-28 melanoma) [µM] | GI50 (HOP-62 NSCLC) | TGI (HOP-62 NSCLC) [µM] | GI50 (SK-MEL-2 melanoma) | TGI (SK-MEL-2 melanoma) | GI50 (DU-145 prostate) | TGI (DU-145 prostate) [µM] | GI50 (LOX IMVI melanoma) | TGI (LOX IMVI melanoma) [µM] |
| --- | --- | --- | --- | --- | --- | --- | --- | --- | --- | --- | --- | --- | --- | --- | --- | --- |
| CC(=O)Oc1ccccc1C(=O)N=C1[Se]CCCN1C(=O)c1ccccc1OC(C)=O | 2.72 µM | 7.78 | 4.12 µM | 24.7 | 1.98 µM | 4.76 | 2.36 µM | 5.74 | 1.61 µM | 3.01 | 2.38 µM | 5.09 µM | 1.82 µM | 3.26 | 1.7 µM | 4.37 |
| O=C(N/N=C\c1cc(Br)ccc1O)c1ccncc1 | 3.61 µM | > 100 | 4.63 µM | > 100 | 5.36 µM | > 100 | 3.52 µM | > 100 | 1.57 µM | 66.2 | 4.29 µM | > 100 µM | 2.53 µM | > 100 | 1.07 µM | 94.7 |
| O=C(Nc1cccc(Cl)c1)c1cc2ccccc2cc1O | 1.76 µM and 1.03 µM | – | 2.05 µM and 1.76 µM | > 100 | 2.38 µM and 2.02 µM | > 100 | 2.69 µM and 0.554 µM | > 100 | 2.8 µM and 2.47 µM | – | 0.415 µM and 2.94 µM | 4.63 µM and 40.8 µM | 3.07 µM and 2.38 µM | > 100 | 3.73 µM and 1.75 µM | > 100 |
| COc1ccc(/C=c2/sc3n(c2=O)C(c2ccc(OC)c(OC)c2)C2=C(N=3)c3cc(F)ccc3OC2)cc1 (stereo not given) | 3.69 µM | 26.1 | 3.45 µM | > 54.9 | 14.1 µM | 41.1 | 51.5 µM | > 96.6 | 37.7 µM | > 100 | > 45.2 µM | > 92.4 µM | 43.3 µM | > 100 | 23 µM | 50.7 |
| Nc1c(C(=O)N/N=C/c2ccc(-c3ccc(Cl)cc3)o2)cnn1-c1ccnc2c(C(F)(F)F)cccc12 | > 100 µM | > 100 | > 100 µM | > 100 | > 100 µM | > 100 | > 100 µM | > 100 | > 100 µM | > 100 | > 100 µM | > 100 µM | > 100 µM | > 100 | > 100 µM | > 100 |
| O=C(CN(C1CCCCC1)C1CCCCC1)Nc1ccc(S(=O)(=O)c2ccc(NC(=O)CN(C3CCCCC3)C3CCCCC3)cc2)cc1 | 1.02 µM | 2.61 | 1.33 µM | 2.73 | 0.873 µM | 2.35 | 1.21 µM | 2.82 | 1.2 µM | 3.56 | 1.35 µM | 3.5 µM | 1.14 µM | 2.38 | 0.239 µM | 0.845 |
| COc1cc2cn3c4ccc(O)cc4[nH]c(=O)c3c2cc1OC | 0.0716 µM | 1.9 | 0.0435 µM | 1.98 | < 0.01 µM | 0.0192 | < 0.01 µM | 0.681 | 0.0338 µM | 1.81 | 0.0398 µM | 5.36 µM | 0.0229 µM | 1.25 | 0.0131 µM | 1.44 |
| NC(=O)C(=CNc1nc(-c2ccc(Cl)c(Cl)c2)cs1)C(N)=O | > 100 µM | > 100 | > 100 µM | > 100 | 48.2 µM | > 100 | > 100 µM | > 100 | > 100 µM | > 100 | 75.6 µM | > 100 µM | > 100 µM | > 100 | > 100 µM | > 100 |
| COc1ccccc1/C=C/c1cnccn1 | – | > 10 | – | > 10 | – | > 10 | – | > 10 | – | > 10 | – | > 10 µM | – | > 10 | – | > 10 |
| O=C(O)c1cc(O)c2c(c1)C(C1c3cc(C(=O)O)cc(O)c3C(=O)c3c(OC4OC(CO)C(O)C(O)C4O)cccc31)c1cccc(OC3OC(CO)C(O)C(O)C3O)c1C2=O (stereo not given) | > 100 µM | > 100 | > 100 µM | > 100 | > 100 µM | > 100 | > 100 µM | > 100 | > 100 µM | > 100 | > 100 µM | > 100 µM | > 100 µM | > 100 | > 100 µM | > 100 |
| CC(C)c1ccccc1S(=O)c1ccccc1C(C)(C)O (stereo not given) | – | > 100 | – | > 100 | – | > 100 | – | > 100 | – | 48.7 | – | > 100 µM | – | > 100 | – | > 100 |
| CC(=O)Oc1ccc(Nc2c3ccccc3nc3ccccc23)cc1 | 1.17 µM | 2.98 | 1.42 µM | 10.3 | 2.17 µM | 8.16 | 1.58 µM | 3.92 | 0.971 µM | 3.48 | 1.8 µM | 3.79 µM | 0.536 µM | 3 | 0.736 µM | 2.03 |
| COc1cc(NC(C)CCCN)c2nccc(C)c2c1OC (stereo not given) | 4.21 µM | 22 | 11.4 µM | 25.8 | 17.1 µM | 32.7 | 14.6 µM | 29.6 | 11.1 µM | 28 | 18.8 µM | 49.8 µM | 15.3 µM | 28.6 | 14.7 µM | 28.7 |
| CCN(CC)CCOc1ccc(/C(=C(\C)c2ccc(F)c(OC)c2)c2ccc(Cl)cc2)cc1 | 2.39 µM | 4.97 | 2.38 µM | 4.64 | 2.43 µM | 4.61 | 2.44 µM | 4.71 | 2.51 µM | 4.99 | 2.8 µM | 5.51 µM | 2.51 µM | 5.28 | 2.46 µM | 4.66 |
| CCOC(=O)N1CCN(C(=O)c2ccc(C(F)(F)F)nc2Nc2cc(Cl)ccc2C)CC1 | 14.1 µM | 74.5 | 36.8 µM | > 100 | 5.86 µM | 26.7 | 26.1 µM | 96 | 25.8 µM | > 100 | 22.3 µM | 72.9 µM | 48.2 µM | > 100 | 19.7 µM | > 100 |
| Cc1cc(NC(=O)c2ccc(C)c(Nc3nccc(-c4cccnc4)n3)c2)cc(-n2cnc(C)c2)c1 | 9.44 µM | > 34.1 | 0.005 µM | 12.8 | 2.12 µM | 8.76 | 1.71 µM | 6.19 | 1.68 µM | 6.7 | 5.03 µM | 12.9 µM | 1.96 µM | 9.06 | 4.09 µM | 13 |
| NC(N)=N/N=C/c1cc(Cl)cc(Cl)c1O | – | > 100 | – | > 100 | – | > 100 | – | > 100 | – | > 100 | – | > 100 µM | – | > 100 | – | > 100 |
| CN1CCc2c(Sc3ccc(C(=O)NO)cc3)c3ccccc3n2C1 | 1.7 µM | 3.88 | 2.61 µM | 9.78 | 1.61 µM | 3.34 | 1.58 µM | 3.98 | 1.97 µM | 6.12 | 2.01 µM | 4.55 µM | 2.57 µM | 9.37 | 1.64 µM | 3.57 |
| Cc1sc2nc(NCCc3c[nH]c4ccc(Cl)cc34)[nH]c(=O)c2c1C | 2.39 µM | 6.22 | 2.38 µM | 6.59 | 3.31 µM | 11.3 | 4.08 µM | 15.7 | 2.52 µM | 10.4 | 2.62 µM | 9.29 µM | 3.59 µM | 13 | 1.87 µM | 3.68 |
| Nc1nc(Nc2ccccc2)c2ncn(Cc3cc4c(cc3Br)OCO4)c2n1 | 0.0187 µM | > 100 | 0.407 µM | > 100 | 0.0301 µM | 0.129 | 0.524 µM | 36.2 | 0.0675 µM | 7.65 | 0.0546 µM | 42.3 µM | 0.184 µM | 13.7 | 0.0563 µM | > 100 |
| CN(C)c1ccc2nc3ccc(=O)cc-3sc2c1 | 0.82 µM | > 100 | 0.865 µM | > 79 | 0.31 µM | 0.985 | 4.6 µM | 27.1 | 0.763 µM | > 56.9 | 3.51 µM | 25.8 µM | 1.8 µM | 6.17 | 0.633 µM | > 63.8 |
| N#CC1Nc2ccccc2[C@@H](O)C1O (stereo not given in full) | – | > 100 | – | > 100 | – | > 100 | – | > 100 | – | > 100 | – | > 100 µM | – | > 100 | – | > 100 |
| O=C(CCCN1CC=C(n2c(=O)[nH]c3ccccc32)CC1)c1ccc(F)cc1 | 37.6 µM | > 100 | 96.2 µM | > 100 | 18.1 µM | 49.5 | 52.6 µM | > 100 | 57.6 µM | > 100 | 19.5 µM | 70.9 µM | 68.1 µM | > 100 | 26 µM | > 100 |
| COc1ccc(C2C(C#N)=C(N)OC3=C2COc2ccc(F)cc23)cc1OC (stereo not given) | 13.1 µM | 36.7 | 20.8 µM | 89.4 | 23.6 µM | 62.3 | 51.8 µM | > 100 | 27.9 µM | > 100 | 68.7 µM | > 100 µM | 28.2 µM | > 100 | 11.3 µM | 24.1 |
